# Measurements: patent US7488712B2, “Histone deacetylase inhibitors and methods for producing the same” (Kyushu Institute of Technology, priority 2002, dated 2009)
# *1 amine or outer side, *2 acyl side, *3 side chain or, on linkers, in order; H or OH if unused. Where a SMILES comes first, the peptide text is derived from it. Bridges are numbered along the chain shown (N, C = ends). Roman numbers before positions name the chains, in order. [ ]: non-standard residue; d: D form. hNle(7-SH) = O=C([C@H](CCCCCS[*:3])N[*:1])[*:2]; Gly((CH2)5SH) = N[C@@H](CCCCCS)C(=O)O; Pip = O=C(O)[C@@H]1CCCCN1; dPip = O=C(O)[C@H]1CCCCN1
# Experiments:
# [1] = tested on: human wild-type p21 promoter; assay: p21 promoter-inducing activity (luciferase) in MFLL-9 cells; format: cell-based
# Method: The HDAC inhibition activity in vivo was measured using p21 promoter-inducing activity as an index, as shown below. The MFLL-9 cells employed for the experiments stably maintained fusion genes of human wild-type p21 promoter and luciferase (Dr. B. Vogelstaein). Using phenol red-free DMEM medium comprising 10% FBS, cultivation was carried out in a steam-saturated incubator at 37° C. with 5% carbon dioxide. The MFLL-9 cells were plated at a density of 85,000 cells/well on a 96-well microtiter plate, each in 99 μl of the above-mentioned medium. These were then cultivated for six hours. One μl of test compound solution was added to each well, which was then cultured for another 18 hours.
# The intensity of luminescence caused by the product of the enzyme reaction for intracellular luciferase expression was measured using Luc Lite (Packard BioScience Company). A group in which test compounds were not added was used as a negative control group. The values measured for this group were used as a standard. The activities for each concentration of added test compound were expressed relative to the above-mentioned standard value, 1.
# human HDAC4 = biological target: T1, human HDAC4 (Homo sapiens, UniProt P56524); assay: In vitro HDAC inhibition activity, [3H]-acetylated histone substrate, HDAC4; format: biochemical
# T1 construct: FLAG; made in house; host or cells: 293T cells (transient transfection, anti-FLAG immunoprecipitation, FLAG peptide elution)
# Method: (§1) To measure HDAC inhibition activity, an HDAC solution was prepared as described below. 1×10^7 of 293T cells were plated on to a 100-mm dish and, after 24 hours, transfected with vectors (1 μg) expressing human HDAC1 and HDAC4 or mouse HDAC6, using LipofectAmine 2000 reagent (Life Technologies, Inc. Gaithersburg, Md.). […] The vectors were introduced for five hours in OPTI-MEM. The medium was then replaced with Dulbecco's modified Eagle's medium (DMEM), and incubated for 19 hours. The cells were washed with PBS, suspended in lysis buffer (50 mM Tris-HCl (pH7.5), 120 mM NaCl, 5 mM EDTA, and 0.5% Nonidet P-40), and sonicated. The supernatant was collected by centrifugation and nonspecific protein was removed using Protein A/G plus agarose beads (Santa Cruz Biotechnologies, Inc.). Anti-FLAG M2 antibodies (Sigma-Aldrich, Inc.) were added to the supernatant of cells expressing HDAC1 or HDAC4. Anti-HA antibodies (clone 3F10, Roche Molecular Biochemicals) were added to the supernatant of cells expressing HDAC6. Reaction in the respective mixtures was carried out at 4° C. for one hour. The resulting reaction mixtures were independently mixed with agarose beads and further reacted at 4° C. for one hour. The agarose beads were washed three times with lysis buffer and then washed once with HD buffer (20 mM Tris-HCl (pH8.0), 150 mM NaCl, 10% glycerol, and a complete protease inhibitor cocktail (Boehringer Mannheim, Germany)). […] The HDAC reaction solution was used for determining HDAC inhibition activity as shown below.
# (§2) In vitro HDAC inhibition activity was evaluated as follows: A test compound was dissolved in DMSO and adjusted to 10 mM. This was used as an inhibitor stock solution. […] These reactions were stopped by adding 10 μl HCl. The [^3H] acetic acid excised by the enzyme reaction was extracted with ethyl acetate and subjected to radioactive dose measurement. As a negative control, the same procedure was carried out in which no inhibitor was added to the reaction system. The inhibition activity was expressed as a 50% inhibition concentration (“IC50 (nM)”) of the HDAC activity in the negative control (Tables 1 to 4).
# human HDAC1 = biological target: T2, human HDAC1 (Homo sapiens, UniProt Q13547); assay: In vitro HDAC inhibition activity, [3H]-acetylated histone substrate, HDAC1; format: biochemical
# T2 construct: FLAG; made in house; host or cells: 293T cells (transient transfection, anti-FLAG immunoprecipitation, FLAG peptide elution)
# Method: as §1, §2
# mouse HDAC6 = biological target: T3, mouse HDAC6 (Mus musculus, UniProt Q9Z2V5); assay: In vitro HDAC inhibition activity, [3H]-acetylated histone substrate, HDAC6; format: biochemical
# T3 construct: HA; made in house; host or cells: 293T cells (transient transfection, anti-HA immunoprecipitation, HA peptide elution)
# T3 sequence (Q9Z2V5 1-1149): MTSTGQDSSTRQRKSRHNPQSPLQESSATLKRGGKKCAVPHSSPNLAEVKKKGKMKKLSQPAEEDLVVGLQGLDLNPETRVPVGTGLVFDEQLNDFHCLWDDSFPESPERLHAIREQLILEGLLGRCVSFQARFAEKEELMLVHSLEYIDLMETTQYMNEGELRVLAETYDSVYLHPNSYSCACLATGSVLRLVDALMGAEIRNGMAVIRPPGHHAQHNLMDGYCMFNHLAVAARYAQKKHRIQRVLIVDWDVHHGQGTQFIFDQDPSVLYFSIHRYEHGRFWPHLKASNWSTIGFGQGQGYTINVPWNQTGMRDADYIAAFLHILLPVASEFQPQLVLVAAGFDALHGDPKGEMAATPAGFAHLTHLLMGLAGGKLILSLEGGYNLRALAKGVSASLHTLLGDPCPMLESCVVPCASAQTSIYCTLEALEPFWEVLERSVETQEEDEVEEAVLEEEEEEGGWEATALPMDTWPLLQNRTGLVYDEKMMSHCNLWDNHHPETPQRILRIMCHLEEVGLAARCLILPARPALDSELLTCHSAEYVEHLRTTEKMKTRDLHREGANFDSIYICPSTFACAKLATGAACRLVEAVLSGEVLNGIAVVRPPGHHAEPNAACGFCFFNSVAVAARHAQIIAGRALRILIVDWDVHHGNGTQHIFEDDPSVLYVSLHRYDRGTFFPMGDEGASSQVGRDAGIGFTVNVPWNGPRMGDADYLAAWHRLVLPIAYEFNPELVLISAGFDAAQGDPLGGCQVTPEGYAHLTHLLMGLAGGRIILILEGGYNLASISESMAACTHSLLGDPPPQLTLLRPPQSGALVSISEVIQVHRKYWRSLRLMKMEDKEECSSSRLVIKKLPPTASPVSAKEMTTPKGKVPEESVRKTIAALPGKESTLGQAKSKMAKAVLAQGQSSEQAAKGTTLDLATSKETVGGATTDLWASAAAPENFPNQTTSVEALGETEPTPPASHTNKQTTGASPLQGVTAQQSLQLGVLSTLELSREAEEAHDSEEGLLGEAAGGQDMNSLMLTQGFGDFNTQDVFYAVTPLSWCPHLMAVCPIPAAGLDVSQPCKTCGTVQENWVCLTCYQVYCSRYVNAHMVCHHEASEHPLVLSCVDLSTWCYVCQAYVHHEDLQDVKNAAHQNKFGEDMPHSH
# Method: as §1, §2
# [2] = Table 1, X = H (coexisting with DTT), 50% of maximum active value for TSA
# [3] = Table 1, X = H (coexisting with DTT)
# T2 sequence (Q13547 whole entry): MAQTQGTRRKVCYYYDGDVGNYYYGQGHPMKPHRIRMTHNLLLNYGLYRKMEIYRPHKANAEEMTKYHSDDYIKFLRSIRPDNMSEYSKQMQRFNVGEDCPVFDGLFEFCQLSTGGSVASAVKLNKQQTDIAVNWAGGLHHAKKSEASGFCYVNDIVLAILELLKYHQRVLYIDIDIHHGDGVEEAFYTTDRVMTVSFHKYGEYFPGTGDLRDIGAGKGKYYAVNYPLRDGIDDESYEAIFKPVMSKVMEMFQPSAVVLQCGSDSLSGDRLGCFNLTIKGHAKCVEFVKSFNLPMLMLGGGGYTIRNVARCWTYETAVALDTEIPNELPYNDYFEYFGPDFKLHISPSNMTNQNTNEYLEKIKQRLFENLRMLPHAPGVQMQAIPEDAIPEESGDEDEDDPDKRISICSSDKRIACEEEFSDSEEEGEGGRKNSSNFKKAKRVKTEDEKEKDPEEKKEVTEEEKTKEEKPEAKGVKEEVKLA
# T1 sequence (O15379 whole entry partner): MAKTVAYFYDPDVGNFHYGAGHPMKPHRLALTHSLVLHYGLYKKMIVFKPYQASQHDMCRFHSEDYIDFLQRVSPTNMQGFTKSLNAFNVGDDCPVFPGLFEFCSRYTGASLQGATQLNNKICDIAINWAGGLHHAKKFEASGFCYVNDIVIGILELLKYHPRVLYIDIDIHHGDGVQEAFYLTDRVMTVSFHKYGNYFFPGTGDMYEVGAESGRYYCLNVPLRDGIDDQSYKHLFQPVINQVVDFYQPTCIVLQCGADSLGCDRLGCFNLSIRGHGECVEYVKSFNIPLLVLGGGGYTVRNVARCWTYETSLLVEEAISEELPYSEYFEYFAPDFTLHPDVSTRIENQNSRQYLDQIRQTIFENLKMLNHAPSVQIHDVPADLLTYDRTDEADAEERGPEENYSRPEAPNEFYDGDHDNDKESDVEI
# T1 sequence (P56524 whole entry): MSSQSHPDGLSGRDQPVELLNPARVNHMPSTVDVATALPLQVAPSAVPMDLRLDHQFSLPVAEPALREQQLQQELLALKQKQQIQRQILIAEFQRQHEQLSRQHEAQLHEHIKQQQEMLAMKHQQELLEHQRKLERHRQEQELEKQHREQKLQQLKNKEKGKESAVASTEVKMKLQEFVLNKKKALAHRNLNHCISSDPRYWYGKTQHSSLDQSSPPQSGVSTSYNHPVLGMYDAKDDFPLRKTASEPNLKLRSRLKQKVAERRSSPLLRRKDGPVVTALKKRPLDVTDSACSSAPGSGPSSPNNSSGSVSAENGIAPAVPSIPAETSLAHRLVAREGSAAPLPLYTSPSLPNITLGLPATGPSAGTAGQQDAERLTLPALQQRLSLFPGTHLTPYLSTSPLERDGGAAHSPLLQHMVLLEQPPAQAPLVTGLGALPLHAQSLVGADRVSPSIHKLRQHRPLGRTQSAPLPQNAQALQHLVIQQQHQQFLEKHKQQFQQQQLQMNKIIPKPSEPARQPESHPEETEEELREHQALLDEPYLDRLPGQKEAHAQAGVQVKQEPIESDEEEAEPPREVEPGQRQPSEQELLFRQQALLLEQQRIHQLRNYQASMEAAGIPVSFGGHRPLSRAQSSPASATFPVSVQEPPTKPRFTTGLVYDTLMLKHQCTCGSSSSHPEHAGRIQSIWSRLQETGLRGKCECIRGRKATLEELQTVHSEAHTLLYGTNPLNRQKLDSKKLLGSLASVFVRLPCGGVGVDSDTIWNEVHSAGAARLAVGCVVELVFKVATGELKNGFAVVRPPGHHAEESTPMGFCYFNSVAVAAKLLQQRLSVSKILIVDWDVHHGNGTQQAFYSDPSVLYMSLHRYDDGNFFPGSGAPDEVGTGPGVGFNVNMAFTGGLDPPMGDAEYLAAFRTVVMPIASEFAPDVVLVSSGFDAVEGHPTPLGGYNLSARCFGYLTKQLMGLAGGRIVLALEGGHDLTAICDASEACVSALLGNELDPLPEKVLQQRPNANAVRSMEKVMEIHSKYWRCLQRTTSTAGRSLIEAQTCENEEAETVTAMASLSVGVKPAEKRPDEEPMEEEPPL
SMILES,"EC50 [1, 2]",IC50 (human HDAC4; [3]),IC50 (human HDAC1; [3]),IC50 (mouse HDAC6; [3]),"EC50 ([1]; Table 2, homodimer)","IC50 (human HDAC4; Table 2, homodimer)","IC50 (human HDAC1; Table 2, homodimer)","IC50 (mouse HDAC6; Table 2, homodimer)"
CC[C@H](C)[C@@H]1NC(=O)[C@@H](Cc2ccc(OC)cc2)NC(=O)[C@H](CCCCCS)NC(=O)[C@@H]2CCCN2C1=O [SCOP 148] (cyclo([Gly((CH2)5SH)][dY](Me)IP)),6720 nM,17 nM,81.4 nM,> 500000 nM,–,–,–,–
CC[C@H](C)[C@@H]1NC(=O)[C@@H](Cc2ccc(OC)cc2)NC(=O)[C@H](CCCCCS)NC(=O)[C@@H]2CCCCN2C1=O [SCOP 149] (cyclo([Gly((CH2)5SH)][dY](Me)I[Pip])),596 nM,5.22 nM,2.37 nM,44300 nM,–,–,–,–
CC[C@H](C)[C@@H]1NC(=O)[C@@H](Cc2ccc(OC)cc2)NC(=O)[C@H](CCCCCS)NC(=O)[C@H]2CCCCN2C1=O [SCOP 150] (cyclo([Gly((CH2)5SH)][dY](Me)I[dPip])),504 nM,4.26 nM,2.1 nM,5560 nM,–,–,–,–
CC[C@H](C)[C@@H]1NC(=O)[C@@H](Cc2ccc(OC)cc2)NC(=O)[C@H](CCCCS)NC(=O)[C@H]2CCCN2C1=O [SCOP 151],> 100000 nM,7340 nM,932 nM,28500 nM,–,–,–,–
CC[C@H](C)[C@@H]1NC(=O)[C@@H](Cc2ccc(OC)cc2)NC(=O)[C@H](CCCCCCS)NC(=O)[C@H]2CCCN2C1=O [SCOP 153],9850 nM,91 nM,9.13 nM,8050 nM,–,–,–,–
CC[C@H](C)[C@@H]1NC(=O)[C@@H](Cc2ccc(OC)cc2)NC(=O)[C@H](CCCCCCCS)NC(=O)[C@H]2CCCN2C1=O [SCOP 154],31400 nM,99.2 nM,38.1 nM,2470 nM,–,–,–,–
"CC[C@H](C)[C@@H]1NC(=O)[C@@H](Cc2ccc(OC)cc2)NC(=O)[C@H](CCCCCSSCCCCC[C@@H]2NC(=O)[C@@H]3CCCN3C(=O)[C@H]([C@@H](C)CC)NC(=O)[C@@H](Cc3ccc(OC)cc3)NC2=O)NC(=O)[C@@H]2CCCN2C1=O [SCOP 296, cyclo(-L-Am7(-)-D-Tyr(Me)-L-Ile-L-Pro-)] (I: cyclo([hNle(7-SH)][dY](Me)IP) / II: cyclo([hNle(7-SH)][dY](Me)IP); disulfide I:1-II:1)",–,–,–,–,7730 nM,222 nM,763 nM,> 500000 nM
